From patent US10328051B2, “Proline or proline derivatives for the treatment of dementia” (priority 2014, dated 2019)

Legend:
[1] = system: patients with mild or moderate Alzheimer's disease and Dementia; test: Physical and cognitive conditions and Quality of Life questionnaire in patients with mild and moderate Alzheimer's disease (Example 13); format: in vivo, human
Source text: Example 13—Physical, and Cognitive Conditions—Alzheimer—Dementia Measure and Quality of Life (QoL) (FIGS. 13.1, 13.2, 13.3)
According to the ICH-GCP requirements for assessment of the Quality of Life (QoL) the validated questionnaire related to the disease e.g. cancer have been administered in the Phase II clinical studies: IPSS-A04, according to the example 12.1 in this invention.
Additional developed modules to these questionnaire provided greater details on the particular aspects of quality of life for those patients who participated in these clinical studies and diagnosed with mild and moderate Alzheimer's disease based on the presence of neuropsychiatric symptoms.
Diagnosis begun with a thorough physical exam and complete medical history including cerebrovascular disease and supplemental information from family members. Simple tests of mental function, including word recall, object naming, and number symbol marching, were used to track changes in the patient's cognitive ability. Ruling out depression was part of the diagnosis. Eight (8) patients over the age of 65 years met these criteria and have been selected for the assessment of CHP effects on the quality of life according to the items mentioned below including the cognitive status.
The administration of intravenous (iv) and oral CHP as monotherapy has been scheduled according to examples 12.1 in this invention in the patient's group G2—in study IPSS-A04.
The assessment of the QoL, physical, and cognitive conditions—Alzheimer-Dementia has been completed by the patients/care providers in the following intervals (FIGS. 13.1-13.3):
Pre-dose: Prior to the start of treatment with CHP as monotherapy
Start and completion of treatment with CHP: The questionnaire has been completed every 4 weeks after the start of treatment (Week 4, 8, 12, 16, 20, 24) and 4 weeks upon the completion of the treatment with CHP as monotherapy. A scale value is given for each response that reflects a good quality of life. […] A higher score reflects a higher quality of life. The 5 domains of Quality of Life—Alzheimer's Disease-Dementia included are: 1. Enjoyment of activities, 2. Feelings and mood, 3. Awareness of self, 4. Social Interactions, 5. Illness global QoL.
The following modified QLQ-C30 Version 1.0 has been used for the recording and assessment of the patient's conditions prior to and after the treatment with CHP.

[2] = Tissue distribution, bioaccumulation and pharmacokinetics following multiple dose administration of 3H-CHP in mice (Study IPSS E015); format: in vivo
Source text: Example 2. A Study in Mice on the Tissue Distribution, Bioaccumulation and Pharmacokinetics in Tissues, Connective and BrainTissues Following Multiple Dose Administration of ^3H-CHP Study No. IPSS E015 (FIG. 2)
According to this invention the study has been designed and performed as follows:
From each mouse sacrificed, the following organs & tissues samples were taken:
Liver, kidney, pancreas, limbic system, spinal fluid, brain stem, cerebrum, cerebellum, cartilage, ligaments and tendons (dense or fibrous connective tissue), loose connective tissue, and reticular connective tissue (supports lymph nodes, bone marrow, and spleen)

[3] = after completion of treatment, 8 patients, pre dose 0
[4] = after completion of treatment, 8 patients, pre dose 3
[5] = after completion of treatment, 8 patients, pre-dose 0
[6] = repeated oral dose of 3H-CHP for 7 consecutive days

## O=C(O)[C@@H]1C[C@H](O)CN1 [CHP, cis-4-hydroxy-L-proline]
[1]; [3]
  Overall Physical Condition: number of patients rating 5: 5
  Overall Physical Condition: number of patients rating 6: 1
  Overall Physical Condition: number of patients rating 7: 0
  Overall Quality of Life (QoL): number of patients rating 4: 3
  Overall Quality of Life (QoL): number of patients rating 5: 3
  Overall Quality of Life (QoL): number of patients rating 6: 2
  Overall Quality of Life (QoL): number of patients rating 7: 0
[1]; [4]
  Overall Physical Condition: number of patients rating 3: 1
  Overall Physical Condition: number of patients rating 4: 1
  Overall Quality of Life (QoL): number of patients rating 3: 0
[1]; [5]
  Overall Cognitive Conditions: number of patients rating 5: 3
  Overall Cognitive Conditions: number of patients rating 6: 1
  Overall Cognitive Conditions: number of patients rating 7: 0
[1]; after completion of treatment, 8 patients, pre-dose 1
  Overall Cognitive Conditions: number of patients rating 4: 3
[1]; after completion of treatment, 8 patients, pre-dose 3
  Overall Cognitive Conditions: number of patients rating 3: 1
[1]; after completion of treatment, scale 1 = Very poor 7 = Excellent, 8 patients, pre dose 2
  Overall Physical Condition: number of patients rating 2: 0
[1]; after completion of treatment, scale 1 = Very poor 7 = Excellent, 8 patients, pre dose 5
  Overall Quality of Life (QoL): number of patients rating 2: 0
[1]; after completion of treatment, scale 1 = Very poor 7 = Excellent, 8 patients, pre-dose 4
  Overall Cognitive Conditions: number of patients rating 2: 0
[1]; oral and/or intravenous CHP monotherapy, 90-540 consecutive days, 2-12 gram per day, mild or moderate Alzheimer's disease and dementia
  Cognitive, physical, emotional conditions and quality of life in comparison to status prior to the start of the treatment: significant improvement
[1]; patients with mild or moderate Alzheimer's disease
  Adverse events: Only mild adverse events
[2]; repeated dose of oral aqueous solution of 3H-CHP
  Penetration of the BBB: Excellent penetration of the BBB
[2]; [6]
  AUC as % of total administered CHP in cerebrum, cerebelium, brain stem, limbic system and spinal fluid: 14.9%
  AUC as % of total administered CHP in loose connective tissues, cartilage, reticular connective tissue, dense/fibrous connective tissue, bone and bone marrow: 35%
  Half-Life time in cerebrum, cerebelium, brain stem and limbic system: 32.30 to 42.70 h
